Data set [1] deals with T1, E. coli DNA dependent RNA polymerase (Escherichia coli, UniProt P0A8T7+P0A8V2).
T1 construct: purchased Sigma
Briefly: Inhibition of E. coli DNA dependent RNA polymerase. Type of data set: biochemical. As to the method:
(§1) Polymerases, nucleic acid template nucleoside triphosphates, of which guanosine triphosphate is tritium-labelled, salt and buffer are mixed at 0° C. in a total volume of 125 μl (for herpes DNA polymerase, see F. below). The concentrations of the nucleoside triphosphates UTP (uridine triphosphate), CTP (cytidinetriphosphate), GTP (guanosinetriphosphate) and ATP (adenosinetriphosphate) were generall 400, 400, 400, and 2000 μM, respectively. The test compound is also added in various concentrations to the mixture obtained. A standard mixture without test compound is also prepared using the same amounts of the ingredients. The enzyme reaction, i.e. synthesis of nucleic acid, is started by incubating the mixture at 37° C. For influenza RNA polymerases the temperature is 33° C. The reaction is allowed to proceed for 60 minutes in the assay of influenza and Micrococcus polymerases. […] The incorporation of labelled monomer into trichloroacetic acid insoluble nucleic acid product was measured in the following way. […] After drying the discs are measured for radioactivity in a liquid scintillation counter. The difference in radioactivity between samples with and without added compound is used to calculate the inhibition of the polymerase activity. The inhibition is expressed as percentage inhibition using the radioactivity of the standard sample as basis. […]

Data set [2] has as its system Ehrlich ascites tumors (Friend virus). As to the kind of experiment: Survival of NMRI mice bearing Ehrlich ascites tumors. Conditions: 100 mg/kg per day ip, 2% solution pH 7.2; versus 0.95% NaCl control; FIG. 2. Type of data set: in vivo. As to the method: The inhibition of reverse transcriptase by phosphonoformic acid (PFA) has prompted an investigation of the effect of PFA on animals with tumors where retroviruses are implicated. Ehrlich ascites tumors (Friend virus) in NMRI mice and YBA solid tumors (Moloney virus) in CBA mice have been used.
NMRI mice were inoculated intraperitoneally with 0.1 ml of a 1/10 dilution of ascitic fluid from a mouse with an Ehrlich ascites tumor. Nine mice were given intraperitoneally 100 mg/kg of PFA per day as a 2% solution at pH 7.2, and 9 mice were treated with 0.95% NaCl ip. CBA mice were inoculated with 7×10^6 cells subcutaneously in the flank. Fifteen CBA mice were given 0.5% PFA at pH 7.2 in the drinking water and fifteen water without addition.

Data set [3] deals with T2, reverse transcriptase from SSV (Woolly monkey sarcoma virus, UniProt P03359).
T2 construct: Reverse transcriptase from various retroviruses have been tested in cell-free assays
T2 sequence (P03359 642-1310): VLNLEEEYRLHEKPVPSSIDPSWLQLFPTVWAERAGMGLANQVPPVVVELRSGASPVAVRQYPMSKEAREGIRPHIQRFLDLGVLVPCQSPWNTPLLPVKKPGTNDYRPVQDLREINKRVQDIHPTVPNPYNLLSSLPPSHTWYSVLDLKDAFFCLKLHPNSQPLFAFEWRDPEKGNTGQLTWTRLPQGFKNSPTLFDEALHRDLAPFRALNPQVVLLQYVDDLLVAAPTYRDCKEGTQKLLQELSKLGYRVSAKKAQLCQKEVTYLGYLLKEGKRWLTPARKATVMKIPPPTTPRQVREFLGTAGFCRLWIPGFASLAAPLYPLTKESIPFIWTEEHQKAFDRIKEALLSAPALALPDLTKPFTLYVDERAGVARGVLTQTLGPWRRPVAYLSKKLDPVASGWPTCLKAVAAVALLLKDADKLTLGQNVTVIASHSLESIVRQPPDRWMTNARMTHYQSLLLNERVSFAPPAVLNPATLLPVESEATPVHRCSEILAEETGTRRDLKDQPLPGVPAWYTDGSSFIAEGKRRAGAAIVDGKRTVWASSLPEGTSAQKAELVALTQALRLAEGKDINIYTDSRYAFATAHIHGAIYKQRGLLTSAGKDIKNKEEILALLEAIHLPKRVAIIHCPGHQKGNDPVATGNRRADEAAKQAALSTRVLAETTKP
Briefly: Cell-free reverse transcriptase inhibition, SSV. Type of data set: biochemical, simian sarcoma virus. Conditions: template/primer (rA)n.(dT)10, read-out: Percent inhibition. As to the method: (§2) Reverse transcriptase from various retroviruses have been tested in cell-free assays for inhibition by phosphonoformic acid and phosphonoacetic acid. The assay conditions have been described by Collaborative Research, Inc, 1365 Main Street, Waltham, Mass., USA "Assay kit for mammalian viral reverse transcriptase". BLV and VV were prepared in this laboratory and all other viruses and viral enzyme were obtained from Dr. K Nilsson, Department of Pathology, University of Uppsala and from Boehringer Mannheim, Germany. Phosphonoformic acid (PFA) and phosphonoacetic acid (PAA) were added at pH 7.2 to the reaction mixtures at the start of the reaction.
(§3) Rauscher murine leukemia virus; RMuLV, visna virus; VV, avian myeloblastosis virus; AMV, bovine leukemia virus; BLV, baboon endogenous virus; BaEV, simian sarcoma virus; SSV.

Data set [4] deals with reverse transcriptase from RMuLV. Briefly: Cell-free reverse transcriptase inhibition, RMuLV. Type of data set: biochemical, Rauscher murine leukemia virus. Conditions: template/primer (rA)n.(dT)10. As to the method: as §2, §3
The subject of the next data set is visna virus. As to the kind of experiment: Visna virus growth in sheep choroid plexus (SCP) cells: virus titre and morphological changes. Type of data set: cell-based. As to conditions: for Morphological changes Day 3 / Morphological changes Day 5 / Morphological changes Day 7: Visna virus infected cells. As to the method: Visna virus is a retrovirus that can multiply in sheep choroid (SCP) cells. The infection can be followed by titrating medium from infected cells to determine the formation of virus particles and by observing morphological changes as syncytial formation and cell degeneration.
Plates (5 cm) with primary SCP cells in medium 199 with 10% sheep serum were grown to confluence and then infected with 1×10^6 TCID50 (tissue culture infectious doses) of visna virus. One set of plates were left untreated, one set received different concentrations of phosphonoformic acid (PFA) at pH 7.2. Another set received phosphonoacetic acid (PAA) at pH 7.2. Uninfected plates were used as controls with and without PFA and PAA. The virus titre was determined 5 days after infection by the end-point titration method. The plates were checked daily in a light microscope to observe morphological changes.

For data set [5], the target named is calf thymus DNA dependent RNA polymerase fraction A (DCA) (Bos taurus, UniProt A6QLS0+E1BIX2). Briefly: Inhibition of calf thymus DNA dependent RNA polymerase fraction A. Type of data set: biochemical. As to the method:
as §1

For data set [6] the following is noted: guinea pig, in vivo. As to the method:
Phosphonoformic acid and phosphonoacetic acid were used as their trisodium and disodium salts, respectively. The test substances were used in 1% solutions.
Guinea-pigs of the Dunkin-Hartley strain of both sexes and weighing 200-300 g were used. The back of the animal was shaved and depilated with Opilca® on the day before starting the application of the solutions. The back was divided into six squares in the middle of which 30 μl of the test solutions was applied. In a given group of animals the different solutions were applied in a randomized order alternating between sites. However, the same site was used for repeated application of a given solution.
The irritation was scored on scales of 0 to 3, each grade corresponding to the following specific criteria of irritation:
1=slight erythema or edema or no hair growth
2=moderate erythema or edema or skin discoloration
3=marked erythema or edema or necrosis including crust formation.
The scoring was carried out blindly using coded solutions.
The scores of all the applications for a given solution and time were added and the average score was calculated.
The solvent used was a mixture of glycerol 10.0% (w/v), Tween 80 0.1% and aq sterile ad 100. All solutions were adjusted to pH 6.5 with hydrochloric acid or aqueous sodium hydroxide as required. Thirty μl of 1.0% solutions of phosphonoformic acid and phosphonoacetic acid respectively was applied twice daily during three days to each of six guinea pigs.

Sequence of calf thymus DNA dependent RNA polymerase fraction A (DCA) (E1BIX2 entry or part of it): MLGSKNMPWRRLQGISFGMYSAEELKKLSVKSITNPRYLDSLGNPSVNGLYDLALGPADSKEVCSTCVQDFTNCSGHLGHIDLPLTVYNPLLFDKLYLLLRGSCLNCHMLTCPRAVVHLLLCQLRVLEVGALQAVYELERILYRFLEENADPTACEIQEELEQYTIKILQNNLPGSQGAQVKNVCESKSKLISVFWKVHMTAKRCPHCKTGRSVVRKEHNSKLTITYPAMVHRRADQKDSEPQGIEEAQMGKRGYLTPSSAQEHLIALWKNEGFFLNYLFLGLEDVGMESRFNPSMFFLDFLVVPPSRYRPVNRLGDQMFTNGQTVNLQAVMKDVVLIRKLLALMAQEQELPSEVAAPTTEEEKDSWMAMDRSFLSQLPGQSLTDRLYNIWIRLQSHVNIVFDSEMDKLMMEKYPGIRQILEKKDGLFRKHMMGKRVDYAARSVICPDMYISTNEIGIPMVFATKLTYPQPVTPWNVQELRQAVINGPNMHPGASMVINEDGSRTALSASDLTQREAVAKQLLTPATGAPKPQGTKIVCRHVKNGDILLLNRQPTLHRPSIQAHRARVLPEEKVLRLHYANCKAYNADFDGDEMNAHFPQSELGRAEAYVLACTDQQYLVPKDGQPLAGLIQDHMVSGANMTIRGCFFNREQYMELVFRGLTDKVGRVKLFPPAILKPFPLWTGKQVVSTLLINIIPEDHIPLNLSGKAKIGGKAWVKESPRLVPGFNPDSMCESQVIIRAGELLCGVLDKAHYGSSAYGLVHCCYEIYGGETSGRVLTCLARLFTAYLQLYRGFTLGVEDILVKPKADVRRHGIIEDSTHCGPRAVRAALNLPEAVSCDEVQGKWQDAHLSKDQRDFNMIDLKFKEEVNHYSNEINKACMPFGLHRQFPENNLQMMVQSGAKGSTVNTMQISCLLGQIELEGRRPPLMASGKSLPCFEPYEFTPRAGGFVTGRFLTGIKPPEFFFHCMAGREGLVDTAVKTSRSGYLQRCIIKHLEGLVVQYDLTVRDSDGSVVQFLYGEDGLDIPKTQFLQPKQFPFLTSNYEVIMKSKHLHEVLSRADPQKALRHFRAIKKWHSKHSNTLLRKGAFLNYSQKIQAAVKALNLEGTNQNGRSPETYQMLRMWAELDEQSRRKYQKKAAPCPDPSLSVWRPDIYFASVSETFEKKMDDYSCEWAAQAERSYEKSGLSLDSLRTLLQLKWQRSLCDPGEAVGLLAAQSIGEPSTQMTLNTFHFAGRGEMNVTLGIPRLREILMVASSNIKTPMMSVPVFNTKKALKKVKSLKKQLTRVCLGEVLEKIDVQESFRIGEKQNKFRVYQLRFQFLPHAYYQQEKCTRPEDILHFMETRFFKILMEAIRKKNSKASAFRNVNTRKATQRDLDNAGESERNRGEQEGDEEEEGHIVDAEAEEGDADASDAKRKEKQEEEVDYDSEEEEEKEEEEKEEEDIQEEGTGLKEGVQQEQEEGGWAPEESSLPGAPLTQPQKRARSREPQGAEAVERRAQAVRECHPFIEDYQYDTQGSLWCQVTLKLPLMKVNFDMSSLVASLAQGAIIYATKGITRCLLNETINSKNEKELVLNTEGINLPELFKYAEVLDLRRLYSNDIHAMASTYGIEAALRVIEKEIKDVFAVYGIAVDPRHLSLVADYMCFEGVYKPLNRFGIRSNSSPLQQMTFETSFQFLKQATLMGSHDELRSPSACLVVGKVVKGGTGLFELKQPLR
Sequence of calf thymus DNA dependent RNA polymerase fraction A (DCA) (O15160 whole entry, further chain): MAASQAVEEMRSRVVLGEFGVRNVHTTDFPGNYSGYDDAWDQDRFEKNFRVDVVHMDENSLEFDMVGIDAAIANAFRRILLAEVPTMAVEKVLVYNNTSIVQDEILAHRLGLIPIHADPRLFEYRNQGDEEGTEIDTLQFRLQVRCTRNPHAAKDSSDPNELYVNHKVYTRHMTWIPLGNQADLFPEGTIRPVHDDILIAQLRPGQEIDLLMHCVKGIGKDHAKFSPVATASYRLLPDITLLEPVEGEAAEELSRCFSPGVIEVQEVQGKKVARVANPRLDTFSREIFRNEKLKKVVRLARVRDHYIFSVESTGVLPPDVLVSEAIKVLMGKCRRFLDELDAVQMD
Sequence of calf thymus DNA dependent RNA polymerase fraction A (DCA) (Q9P1U0 whole entry, further chain): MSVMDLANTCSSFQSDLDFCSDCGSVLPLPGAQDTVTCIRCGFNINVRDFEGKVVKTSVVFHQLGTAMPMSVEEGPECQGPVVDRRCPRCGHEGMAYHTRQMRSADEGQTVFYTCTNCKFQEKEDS
Sequence of calf thymus DNA dependent RNA polymerase fraction A (DCA) (A6QLS0 entry or part of it): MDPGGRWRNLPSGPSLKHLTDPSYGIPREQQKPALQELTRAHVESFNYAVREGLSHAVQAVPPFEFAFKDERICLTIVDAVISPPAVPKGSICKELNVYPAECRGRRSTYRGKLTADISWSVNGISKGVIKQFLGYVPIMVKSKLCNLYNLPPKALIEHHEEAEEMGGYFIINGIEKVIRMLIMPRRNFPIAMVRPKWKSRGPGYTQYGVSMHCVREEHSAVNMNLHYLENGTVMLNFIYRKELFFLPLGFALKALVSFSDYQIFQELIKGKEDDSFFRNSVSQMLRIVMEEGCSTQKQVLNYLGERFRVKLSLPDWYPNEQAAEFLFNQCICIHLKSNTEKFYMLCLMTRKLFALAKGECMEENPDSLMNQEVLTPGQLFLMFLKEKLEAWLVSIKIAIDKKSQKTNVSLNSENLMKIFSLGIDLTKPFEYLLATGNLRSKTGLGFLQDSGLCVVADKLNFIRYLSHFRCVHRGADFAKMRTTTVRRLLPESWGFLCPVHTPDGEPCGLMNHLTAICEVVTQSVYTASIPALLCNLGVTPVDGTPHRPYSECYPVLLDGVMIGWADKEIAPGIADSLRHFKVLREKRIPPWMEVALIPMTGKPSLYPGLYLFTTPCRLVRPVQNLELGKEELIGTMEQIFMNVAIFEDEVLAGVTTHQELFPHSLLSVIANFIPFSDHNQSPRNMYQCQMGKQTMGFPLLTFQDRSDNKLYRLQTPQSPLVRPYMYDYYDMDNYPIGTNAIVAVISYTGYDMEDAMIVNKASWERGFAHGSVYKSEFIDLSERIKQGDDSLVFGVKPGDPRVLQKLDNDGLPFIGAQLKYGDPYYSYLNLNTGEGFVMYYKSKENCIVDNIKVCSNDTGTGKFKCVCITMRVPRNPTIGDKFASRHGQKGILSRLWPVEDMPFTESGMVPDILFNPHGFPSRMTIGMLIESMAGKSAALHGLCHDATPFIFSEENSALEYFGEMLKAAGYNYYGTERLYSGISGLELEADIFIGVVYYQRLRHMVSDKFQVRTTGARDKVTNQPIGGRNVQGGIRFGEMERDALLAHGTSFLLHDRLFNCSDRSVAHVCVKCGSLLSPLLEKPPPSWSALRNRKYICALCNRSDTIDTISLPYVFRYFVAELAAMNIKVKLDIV
Sequence of calf thymus DNA dependent RNA polymerase fraction A (DCA) (Q3B726 whole entry, further chain): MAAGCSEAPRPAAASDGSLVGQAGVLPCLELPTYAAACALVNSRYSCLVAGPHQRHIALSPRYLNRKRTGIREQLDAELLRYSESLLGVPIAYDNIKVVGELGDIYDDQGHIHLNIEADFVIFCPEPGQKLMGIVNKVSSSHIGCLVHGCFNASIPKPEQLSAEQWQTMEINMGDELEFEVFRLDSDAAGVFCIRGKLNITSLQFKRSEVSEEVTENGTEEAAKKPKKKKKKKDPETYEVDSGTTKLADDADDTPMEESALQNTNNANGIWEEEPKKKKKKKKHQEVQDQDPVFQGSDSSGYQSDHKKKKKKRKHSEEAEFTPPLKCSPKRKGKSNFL
Sequence of calf thymus DNA dependent RNA polymerase fraction A (DCA) (P0DPB6 whole entry, further chain): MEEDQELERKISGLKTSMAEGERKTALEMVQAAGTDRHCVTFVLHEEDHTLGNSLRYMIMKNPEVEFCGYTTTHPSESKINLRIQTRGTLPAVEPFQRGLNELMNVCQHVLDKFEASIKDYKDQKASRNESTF

One may read the inhibition as the relative decrease from the control value, in per cent. As to `O=C(O)P(=O)(O)O` [phosphonoformic acid], the inhibition at 500 µM is 3% in data set [1], over 99% in data set [3] (500 μM) and -3% in data set [5]. The “survival of mice inoculated with Ehrlich ascites cells” value in data set [2] is “increased survival”. Further, the inhibition at 10 µM in data set [3] (10 μM) was determined as 92%. Further, the inhibition at 100 µM in data set [3] (100 μM) was over 99%. Besides, the figures for the Percent inhibition in data set [4] (10 μM), in data set [4] (100 μM) and in data set [4] (500 μM) were 90%, 96% and over 99%, respectively. In addition, the “Morphological changes Day 3” value with visna virus (100 μM) and with visna virus (500 μM) was “-” in each case. In addition, the “Morphological changes Day 5” value with visna virus (100 μM) is given as “+ (10% cell degeneration)”; in the data set on visna virus (500 μM), “-”. Further, the “Morphological changes Day 7” value with visna virus (100 μM) is reported as “++ (25% cell degeneration)”; in the data set on visna virus (500 μM), “+ (10% cell degeneration)”. Also, in the data set on visna virus (Visna-maedi virus, 120 h, SCP cells, virus titre 5 days after infection, read-out: concentration giving 50 percent reduction of virus multiplication), the IC50 stood at 20 µM. For the same molecule, the “skin condition after two weeks” value in data set [6] is listed as “the skin is normal with hair after two weeks”.
